# Measured values: publication PMC4467461, “Small-molecule activation of SERCA2a SUMOylation for the treatment of heart failure” (Nature Communications, 2015)
# Legend:
# [1] = tested on: HEK-293 cells co-transfected with SERCA2a and SAE1 mutants (Q312A and V315F); assay: N106-induced SERCA2a SUMOylation in HEK-293 cells overexpressing SAE1 mutants; format: cell-based
# Experimental: Supplementary Figure 4. Effects of overexpressing SAE1 mutants on N106-induced SERCA2a SUMOylation. (a) HEK-293 cells were co-transfected with SERCA2a and SAE1 wild type or SAE1 mutants (Q312A and V315F) for 24 hours. And then the transfecting HEK-293 cells were incubated with different concentration of N106 for 24 hours. The level of SERCA2a SUMOylation was determined by immunoprecipitation and following with Western blotting. (b) The levels of SAE1 overexpression were determined by Western blotting with anti- […]
# (1 picture or pasted object on this page, not shown here)
# [2] = tested on: mouse heart tissue (sham and TAC); assay: Molecular analysis of heart tissue of N106-infused mice (western blot, immunoprecipitation, ATPase activity); format: in vivo
# Experimental: Protein extracts (20∼50 μg) were obtained from isolated cardiomyocytes, which was lysed in RIPA buffer (R&D Systems Inc., MN, USA) contained protease inhibitors (Complete mini, Roche Diagnostics, IN, USA) and 20 mM NEM (Sigma-Aldrich). For SERCA2a SUMOylation assays, cardiac protein extracts were immunoprecipitated with a SUMO-1 agarose resin (Santa Cruz Biotechnology Inc., CA, USA) for overnight at 4 °C. The resins were washed with cold lysis buffer three times. The immunocomplexes were then resolved by SDS–PAGE and western blot analysis was performed using a SERCA2a-specific antibody. For general western blotting, cardiac proteins (10∼50 μg) were separated on SDS–PAGE gel, transferred to nitrocellulose membrane (Bio-Rad, CA, USA) and blotted with the following primary antibodies: SUMO-1 (1:1,000, R&D Systems Inc.), Ubc9 (1:1,000, R&D Systems Inc.), SAE2 (1:1,000, Abcam Inc., MA, USA), SERCA2a (1:3,000, 21st Century Biochemicals, MA, USA), PLN (1:5,000, Badrilla Ltd., UK), PLN phosphorylation at serine-16 (1:5,000, Badrilla Ltd.), RyR2 (1:5,000, Abcam Inc.), NCX (1:1,000, Novus Biologicals, CO, USA), glyceraldehyde 3-phosphate (1:10,000, Sigma-Aldrich), GATA4 (1:1,000, Millipore, NY, USA) and Sp1 (1:500, Millipore). Secondary antibodies anti-mouse IgG-HRP (1:10,000) and anti-rabbit IgG-HRP (1:10,000) were purchased from Sigma-Aldrich. The immunoreactive bands were visualized by a supersignal chemiluminescence detection reagent (Pierce Biotechnology, IL, USA). Full scans of western blots are presented in Supplementary Fig. 14.
# SERCA2a ATPase activity was determined using a coupled enzymes assay including pyruvate kinase/lactate dehydrogenase/NADH-coupled reactions. Microsomes were enriched by differential density centrifugation. The cardiac cells and tissues were homogenized on ice in homogenization buffer (250 mM sucrose (Sigma-Aldrich), 5 mM HEPES pH7.0 (Sigma-Aldrich), 1 mM phenylmethyl sulfonyl fluoride (Sigma-Aldrich), protease inhibitor cocktail (Roche Life Science, IN, USA)). The homogenates were centrifuged at 1,000g for 10 min at 4 °C, then the supernatants were collected and centrifuged at 12,000g for 15 min at 4 °C. The supernatants were transferred to ultracentrifuge tubes and centrifuged for 1 h at 140,000g at 4 °C (Optima XE-100, Beckman Coulter). The pellets were resuspended in homogenization buffer to determine protein concentration and calcium-dependent ATPase activity assay. Protein concentration was measured with a 2-D Quant Kit (GE Healthcare Life Sciences, PA, USA). The ATPase activity were measured at 25 °C in 50 mM MOPS (Boston Bioproducts, MA, USA), 100 mM KCl (Boston Bioproducts), 5 mM MgCl2 (Boston Bioproducts), 1 mM EDTA (Boston Bioproducts) at pCa 5.0 by using a coupled enzyme system consisting of pyruvate kinase and lactate dehydrogenase, and monitoring the oxidation of the reduced form of NADH at […].
# Supplementary Figure 9. Molecular analysis in N106 treated mice. (a-d) Representative western blots and protein quantification of select cardiac proteins. Mice heart tissue samples were obtained after external jugular vein infusion with vehicle or 10 mg.kg-1of N106 from sham and TAC mice. The experiments shown are representative of three independent Western blots with […]
# (also on this page, place not known: TACSham TACSham TACSham SUMO-1 Conjugates (relative fold) N106Vehicle TACSham Veh RyR2/GAPDH (relative fold)Vehicle N106Vehicle Veh TACSham Veh 0.5 NCX/GAPDH (relative fold) NSNS N106Vehicle N106Vehicle N106Vehicle 200ATPase activity (% of control)Vehicle N106Vehicle TAC PLN/GAPDH (relative fold) P-PLN/PLN (relative fold) MW) […]
# similar results. (e) The enzyme activity of SERCA2a was determined by using the same set of heart tissue samples. (f) SUMO-1 conjugate was measured by Western blot analysis with an anti-SUMO-1 antibody. Band intensity was quantified by Image J software. The amount of GAPDH was used as a normalization control. […]
compound,measurement,setting,value
"COc1ccc(-c2nnc(Nc3nc4c(OC)cccc4s3)o2)cc1 [Compound N106, N-(4-methoxybenzo[d]thiazol-2-yl)-5-(4-methoxyphenyl)-1,3,4-oxadiazol-2-amine]",N106-induced increase in SUMOylation of SERCA2a in mutant SAE1-overexpressing cells versus overexpressed WT,[1]; 24 h,weaker
same,Dose-dependent increases in SERCA2a SUMOylation in cells overexpressing mutants,"[1]; different concentration of N106, 24 h",not observed
same,GATA4 SUMOylation and its protein levels,[2]; 10 mg kg^−1,no significant effect
same,protein levels of Sp1,[2]; 10 mg kg^−1,not changed
same,SERCA2a protein levels,[2]; 10 mg kg^−1 infusion,not significantly changed
same,protein levels and phosphorylation states of phospholamban,[2]; 10 mg kg^−1 infusion,Neither protein levels nor phosphorylation states of phospholamban were changed
same,protein levels of cardiac ryanodine receptor and sodium–calcium exchanger,[2]; 10 mg kg^−1 infusion,not significant changes
same,whole SUMO-1 conjugates,[2]; 10 mg kg^−1 infusion,not significantly changed
same,SUMOylated specificity protein 1 (Sp1) form,"[2]; TAC heart, 10 mg kg^−1",significantly induced
same,SUMOylation of SERCA2a versus vehicle control,"[2]; TAC hearts, 10 mg kg^−1",significantly increased
same,SERCA2a’s ATPase activity versus vehicle-treated hearts,"[2]; TAC hearts, 10 mg kg^−1 (P=0.06)",somewhat higher
same,SUMOylation of SERCA2a versus vehicle control,"[2]; sham-operated group, 10 mg kg^−1 (P=0.07)",increasing trend
